# Source: PubChem BioAssay (NCI)
# “And” between values parts separate entries of the source, which are not always exact repeats. Equal entries are not always repeated.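 A five-concentration, 48-hour dose response in 96-well plates underlies each endpoint, interpolated linearly between surrounding concentrations. Abbreviation: GI50, concentration required for 50% inhibition of growth. The concentration for full growth arrest is given as TGI.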
# Columns and labels:
# Test in all cases: NCI anticancer screen, dose series, 48 h
# [1] = system: TK-10 renal
# [2] = system: M14 melanoma
# [3] = system: MALME-3M melanoma
# [4] = system: LOX IMVI melanoma
# [5] = system: SN12C renal
# [6] = system: HOP-62 NSCLC
# [7] = system: CAKI-1 renal
# [8] = system: MDA-N
# [9] = system: SF-539 CNS
# [10] = system: NCI-H460 lung
# [11] = system: MOLT-4 leukemia
# [12] = system: HL-60(TB) leukemia
# [13] = system: COLO 205 colon
# [14] = system: SK-MEL-28 melanoma
# [15] = system: SNB-75 CNS
# [16] = system: SK-OV-3 ovarian
# [17] = system: NCI-H226 lung
# [18] = system: HCT-15 colon
# [19] = system: SNB-19 CNS
# [20] = system: RPMI-8226 leukemia
# [21] = system: BT-549 breast
# [22] = system: UACC-62 melanoma
# [23] = system: U251 CNS
# [24] = system: A549 NSCLC
# [25] = system: SK-MEL-2 melanoma
# [26] = system: OVCAR-8 ovarian
# [27] = system: DU-145 prostate
# [28] = system: SK-MEL-5 melanoma
# [29] = system: NCI-H23 lung
# [30] = system: HCT-116 colon
# [31] = system: SF-295 CNS
# [32] = system: UACC-257 melanoma
# [33] = system: IGROV1 ovarian
# [34] = system: MDA-MB-435
# [35] = system: K-562 leukemia
# [36] = system: SW-620 colon
# [37] = system: PC-3 prostate
# [38] = system: OVCAR-4 ovarian
# [39] = system: HCC-2998 colon
# [40] = system: SR leukemia
# [41] = system: T-47D breast
# [42] = system: A498 renal
# [43] = system: OVCAR-3 ovarian
# [44] = system: EKVX NSCLC
# [45] = system: 786-0 renal
# [46] = system: HOP-92 NSCLC
# [47] = system: RXF 393 renal
# [48] = system: HT29 colon
# [49] = system: NCI/ADR-RES ovarian
# [50] = system: CCRF-CEM leukemia
# [51] = system: MDA-MB-231 breast
# [52] = system: MCF7 breast
# [53] = system: ACHN renal
# [54] = system: OVCAR-5 ovarian
# [55] = system: NCI-H522 lung
# [56] = system: KM12 colon
structure (smiles),measurement,setting,value
C=CCN1C(=O)/C(=C/c2ccc(C)cc2)N=C1SC1OC(COC(C)=O)C(OC(C)=O)C(OC(C)=O)C1OC(C)=O (stereo not given),TGI,[1],> 100 µM
same,TGI,[2],> 100 µM
same,TGI,[3],> 100 µM
same,GI50,[4],> 100 µM and 31.7 µM
same,TGI,[4],> 100 µM
same,TGI,[5],> 100 µM
same,GI50,[6],5.17 µM and 47.4 µM
same,TGI,[6],> 100 µM
same,GI50,[7],4.88 µM and 11.2 µM
same,TGI,[7],> 100 µM and 63.4 µM
same,TGI,[8],> 100 µM
same,GI50,[9],16.7 µM and 41.6 µM
same,TGI,[9],> 100 µM
same,TGI,[10],> 100 µM
same,GI50,[11],> 59.9 µM and 14.6 µM
same,TGI,[11],> 100 µM
same,TGI,[12],> 100 µM
same,TGI,[13],> 100 µM
same,TGI,[14],> 100 µM
same,GI50,[15],3.7 µM and 20.2 µM
same,TGI,[15],> 100 µM
same,GI50,[16],> 100 µM and 28.9 µM
same,TGI,[16],> 100 µM and 85.4 µM
same,GI50,[17],> 100 µM and 20.9 µM
same,TGI,[17],> 100 µM and 85.6 µM
same,GI50,[18],> 100 µM and 29.7 µM
same,TGI,[18],> 100 µM
same,TGI,[19],> 100 µM
same,GI50,[20],> 100 µM and 20.2 µM
same,TGI,[20],> 100 µM
same,TGI,[21],> 100 µM
same,GI50,[22],3.83 µM and 37.1 µM
same,TGI,[22],> 100 µM
same,TGI,[23],> 100 µM
same,TGI,[24],> 100 µM
same,GI50,[25],> 100 µM and 38.3 µM
same,TGI,[25],> 100 µM
same,GI50,[26],5.59 µM and 31.5 µM
same,TGI,[26],> 100 µM
same,TGI,[27],> 100 µM
same,GI50,[28],11.2 µM and 32.9 µM
same,TGI,[28],> 100 µM
same,GI50,[29],> 100 µM and 27.1 µM
same,TGI,[29],> 100 µM
same,TGI,[30],> 100 µM
same,TGI,[31],> 100 µM
same,GI50,[32],> 73 µM and 32.9 µM
same,TGI,[32],> 100 µM
same,GI50,[33],> 100 µM and 24.7 µM
same,TGI,[33],> 100 µM
same,GI50,[34],> 70.6 µM and 7.32 µM
same,TGI,[34],> 100 µM and 21.4 µM
same,GI50,[35],> 73.9 µM and 29.9 µM
same,TGI,[35],> 100 µM
same,GI50,[36],> 100 µM and 39.1 µM
same,TGI,[36],> 100 µM
same,GI50,[37],> 100 µM and 34.2 µM
same,TGI,[37],> 100 µM
same,TGI,[38],64.1 µM
same,GI50,[39],> 100 µM and 35.6 µM
same,TGI,[39],> 100 µM
same,GI50,[40],26.5 µM and 10.8 µM
same,TGI,[40],> 76.5 µM and 44.3 µM
same,TGI,[41],> 100 µM
same,GI50,[42],> 100 µM and 23.4 µM
same,TGI,[42],> 100 µM and 69.5 µM
same,GI50,[43],> 100 µM and 29.4 µM
same,TGI,[43],> 100 µM
same,TGI,[44],> 100 µM
same,TGI,[45],> 100 µM
same,GI50,[46],> 100 µM and 11.6 µM
same,TGI,[46],> 100 µM and 53.4 µM
same,TGI,[47],> 39.5 µM and 61.6 µM
same,TGI,[48],> 100 µM
same,GI50,[49],> 100 µM and 32.5 µM
same,TGI,[49],> 100 µM
same,GI50,[50],12.4 µM and 2.25 µM
same,TGI,[51],> 100 µM
same,TGI,[52],> 100 µM
same,GI50,[53],> 27.6 µM and 67.3 µM
same,TGI,[53],> 100 µM
same,TGI,[54],> 100 µM
same,GI50,[55],6.85 µM
same,TGI,[55],> 100 µM
same,TGI,[56],> 100 µM and 17.9 µM
